# From patent US6579851B2, “Effects of glucagon-like peptide-1 (7-36) on antro-pyloro-duodenal motility” (Amylin Pharmaceuticals, Inc., priority 2000, dated 2003)
# Like-named read-outs stand apart in the source and are kept apart here.
# Assays:
# [1] = for GLP-1 (plasma immunoreactivity, AUC over basal): 60 min period, mean ± SEM
# Method: Plasma glucose concentrations were measured using a glucose analyzer by the glucose oxidase method (YSI 1500 G; Schlag, Bergisch-Gladbach, Germany), with a coefficient of variation of <2%. Plasma insulin was measured by the Abbott Imx Microparticle Enzyme Immunoassay, with an average intraassay coefficient of variation of 5%. Plasma immunoreactivities of C-peptide, glucagon, and pancreatic polypeptide (PP) were analyzed by commercially available radioimmunoassay kits (Biermann, Bad Nauheim, Germany and Euradiagnostica, The Netherlands [PP]). […] The detection limit of the assay was 0.25 pmol/l. […] Intra- and inter-assay coefficients of variation were 3.4 and 10.4%, respectively. All values were expressed as mean±SEM. Plasma and motility parameters were separately analyzed for each 60 min period. Pyloric tone was calculated as change from basal, the latter being determined as mean pyloric tone during the total basal period before starting the experiments. Differences of plasma hormones and glucose compared to the basal state were calculated as integrated values over basal (area under the response curve; AUC). Basal levels of plasma parameters were determined as the mean of the two basal values just before the start of each experiment. All samples were first tested for normality by the Kolmogoroff-Smirnoff test. Differences between experimental sets for each parameter were analysed by two-way repeated measures analysis of variance employing intravenous infusion and duodenal perfusion as factors. When this analysis indicated differences, a Student-Newman-Keuls multicomparison test was performed. Differences were considered significant at P<0.05.
# (§1) Eleven healthy male volunteers, 23 to 28 years old and within 10% of ideal body weight, participated in the studies. None of them were taking medication, or suffering from gastrointestinal symptoms or systemic disease.
# (§2) All studies were performed after an overnight fast. Two experiments were performed, separated by at least 1 week on subjects lying in a semirecumbent position. An indwelling catheter was inserted into an antecubital vein for intravenous infusions. A second catheter was inserted into a dorsal vein of the contralateral hand in a retrograde fashion for sampling of arterialized blood (Schirra et al. Proc Assoc Am Physicians 109, 84-97 (1997)).
# (§3) On the interdigestive study day, 0.154 M saline was continuously perfused into the region of the lower duodenal flexure at a rate of 2.5 ml/min. […] On the postprandial study day, the same intravenous infusions were administered with an intraduodenal lipid perfusion at 2.5 kcal/min (2.5 ml/min, Lipofundin MCT 10%, Braun Co., Melsungen, Germany). This lipid preparation consisted of 50% medium-chain triglycerides (MCT) and 50% long-chain triglycerides (LCT, soya bean oil).
# Throughout the experiment, blood samples were taken immediately before the start of intravenous infusion, as well as in 10-min intervals thereafter. Blood was collected in ice-chilled EDTA tubes containing 1000 aprotinin (kallikrein inhibitory units/ml blood) and was centrifuged immediately. The plasma was stored at −20° C. until assayed.
# [2] = Plasma insulin during intravenous GLP-1 infusion (immunoassay); type: in vivo, human
# Method: All values were expressed as mean±SEM. […] Differences were considered significant at P<0.05.
# All studies were performed after an overnight fast.
# The plasma was stored at −20° C. until assayed.
# [3] = during the experiments of the application
# Method: as §1, §2, §3
compound,measurement,setting,value
"CC[C@H](C)[C@H](NC(=O)[C@H](Cc1ccccc1)NC(=O)[C@H](CCC(=O)O)NC(=O)[C@H](CCCCN)NC(=O)[C@H](C)NC(=O)[C@H](C)NC(=O)[C@H](CCC(N)=O)NC(=O)CNC(=O)[C@H](CCC(=O)O)NC(=O)[C@H](CC(C)C)NC(=O)[C@H](Cc1ccc(O)cc1)NC(=O)[C@H](CO)NC(=O)[C@H](CO)NC(=O)[C@@H](NC(=O)[C@H](CC(=O)O)NC(=O)[C@H](CO)NC(=O)[C@@H](NC(=O)[C@H](Cc1ccccc1)NC(=O)[C@@H](NC(=O)CNC(=O)[C@H](CCC(=O)O)NC(=O)[C@H](C)NC(=O)[C@@H](N)Cc1c[nH]cn1)[C@@H](C)O)[C@@H](C)O)C(C)C)C(=O)N[C@@H](C)C(=O)N[C@@H](Cc1c[nH]c2ccccc12)C(=O)N[C@@H](CC(C)C)C(=O)N[C@H](C(=O)N[C@@H](CCCCN)C(=O)NCC(=O)N[C@@H](CCCNC(=N)N)C(N)=O)C(C)C [GLP-1, glucagon-like peptide-1(7-36)amide]","GLP-1 (plasma immunoreactivity, AUC over basal)","[1]; intraduodenal lipid 2.5 kcal/min, GLP-1 iv. high dose 1.2 pmol·kg−1·min−1",75.2 ± 3.9*‡∥ pmol/l · 60 min
same,"GLP-1 (plasma immunoreactivity, AUC over basal)","[1]; intraduodenal lipid 2.5 kcal/min, GLP-1 iv. low dose 0.4 pmol·kg−1·min−1",33.8 ± 2.9*∥ pmol/l · 60 min
same,"GLP-1 (plasma immunoreactivity, AUC over basal)","[1]; intraduodenal saline, GLP-1 iv. high dose 1.2 pmol·kg−1·min−1",67.4 ± 4.0 pmol/l · 60 min
same,"GLP-1 (plasma immunoreactivity, AUC over basal)","[1]; intraduodenal saline, GLP-1 iv. low dose 0.4 pmol·kg−1·min−1",25.2 ± 2.6 pmol/l · 60 min
same,Time to constant plasma levels after start of infusion,"[1]; iv. infusion, duodenal saline and lipid",≤ 20 min
same,Insulin (AUC over basal),"[2]; intraduodenal lipid, high dose 1.2 pmol·kg−1·min−1 iv.",31.4 ± 8.4∥ mU/l · 60 min
same,Insulin (AUC over basal),"[2]; intraduodenal lipid, low dose 0.4 pmol·kg−1·min−1 iv.",24.7 ± 4.8∥ mU/l · 60 min
same,Insulin (AUC over basal),"[2]; intraduodenal saline, high dose 1.2 pmol·kg−1·min−1 iv.",11.9 ± 5.1 mU/l · 60 min
same,Insulin (AUC over basal),"[2]; intraduodenal saline, low dose 0.4 pmol·kg−1·min−1 iv.",11.3 ± 2.4 mU/l · 60 min
same,Hypoglycemia and other side effects,[3],did not cause hypoglycemia
